Among the data in patent US20110230471A1, “BENZONAPHTYRIDINE COMPOUNDS AS INHIBITORS OF AUTOTAXIN” (MERCK PATENT GESELLSCHAFT MIT BESCHRANKTER HAFTUNG, priority 2008, published 2011) are IC50 values, retold here.

In the first assay the target is T1, recombinant autotaxin (Homo sapiens, UniProt Q13822).
T1 construct: made in house; host or cells: Hi5 insect cells (baculovirus)
In words: Autotaxin test (enzyme test), Amplex Red. The conditions noted are these: Autotaxin inhibition (enzyme test), TABLE 1 (A compounds); substrate LPC 75 μM. In kind it is biochemical. The method, then:
The autotaxin activity is measured indirectly using Amplex Red reagent. Amplex Red is measured here as fluorogenic indicator for the H2O2 formed. In detail, autotaxin converts the substrate lysophosphatidylcholine (LPC) into phosphocholine and lysophosphatidylic acid (LPA). After this reaction, the phosphocholine is reacted with alkaline phosphatase to give inorganic phosphate and choline. In the next step, choline is oxidised by choline oxidase to give betaine, with formation of H2O2. H2O2 reacts with Amplex Red reagent in the presence of peroxidase (horseradish peroxidase) in a 1:1 stoichiometry and forms the highly fluorescent resorufin. The fluorescence is measured in a reaction-dependent kinetic mode in order that fluorescent signals from possible other fluorescent substances which are not involved in the reaction can be corrected out.
1.5 μl of a standard solution or of the test substances (substances with the name A(n))in individual concentrations dissolved in 20 mM Hepes pH 7.2 with a maximum of 7.7% of DMSO are pre-incubated together with 10 μl (16 ng) of highly purified recombinant autotaxin in a black microtitre plate provided with 384 wells at 22° C. for 30 min. The reaction is then initiated by addition of 5 μl of L-α-lysophosphatidylcholine (LPC), where the final concentration of LPC is 75 μM. The mixture is incubated at 37° C. for 90 min. After the incubation, Amplex Red reagent, peroxidase (horseradish peroxidase) and choline oxidase is added, and the fluorescence is immediately measured at 612 nm with excitation of 485 nm in a “Tecan Ultra multimode” reader. The activity of autotaxin is calculated indirectly via detection of the H2O2 formed.
• Microtitre plate: PS microplate, 384 wells, small volume, black Corning, Cat#3677 • Protein: recombinant autotaxin (Baculovirale Hi5 Expression) • Substrate: L-α-lysophosphatidylcholine (chicken egg)); Avanti Polar Lipids # 830071 P • Standard: C14 LPA, Avanti Polar Lipids, Cat# 857120P • Detection reagent: Amplex Red reagent; Invitrogen # A12222; dissolved in 1.923 ml of DMSO peroxidase type VI-A (horseradish) from Sigma # P6782; dissolved in 7.45 ml of test buffer, choline oxidase; Sigma # C5896; dissolved in 2.47 ml of test buffer • Detection reagent mix: 1:100 dilution of Amplex Red reagent in test buffer • Test buffer: 200 mM Tris HCl, Merck, Cat # 1.08219, pH 7.9, 0.1% of BSA, lipid-free, Roche Cat#775835
As a reminder, the IC50 is the concentration at which inhibition is half-maximal. For `O=C(CN1CCc2nc3ccccc3c(C(=O)N3CCOCC3)c2C1)Nc1cc(Cl)cc2ccoc12` [Compound A48, N-(5-Chlorobenzofuran-7-yl)-2-[10-(morpholine-4-carbonyl)-3,4-dihydro-1H-benzo[b][1,6]naphthyridin-2-yl]acetamide], the IC50 was 100 to 1000 nM.

Consider `CCOc1ncc(Cl)cc1NC(=O)CN1CCc2nc3ccccc3c(C(=O)N3CCOCC3)c2C1` [Compound A52, N-(5-Chloro-2-ethoxypyridin-3-yl)-2-[10-(morpholine-4-carbonyl)-3,4-dihydro-1H-benzo[b][1,6]naphthyridin-2-yl]acetamide], for which the IC50 was more than 1000 nM.

For `O=C(CN1CCc2nc3ccccc3c(C(=O)N3CCOCC3)c2C1)Nc1ccc(Cl)cc1O` [Compound A53, N-(4-Chloro-2-hydroxyphenyl)-2-[10-(morpholine-4-carbonyl)-3,4-dihydro-1H-benzo[b][1,6]naphthyridin-2-yl]acetamide], the IC50 lay within 100 to 1000 nM.

For the compound `O=C(CN1CCc2nc3ccccc3c(C(=O)N3CCOCC3)c2C1)Nc1cc(Cl)ccc1OCCO` [Compound A54, N-[5-Chloro-2-(2-hydroxyethoxy)phenyl]-2-[10-(morpholine-4-carbonyl)-3,4-dihydro-1H-benzo[b][1,6]naphthyridin-2-yl]acetamide], the IC50 was in the range of 100 to 1000 nM.

`CC(C)Oc1ccc(Cl)cc1NC(=O)CN1CCc2nc3ccccc3c(C(=O)N3CCN(CCO)CC3)c2C1` [Compound A60, N-(5-Chloro-2-isopropoxyphenyl)-2-{10-[4-(2-hydroxyethyl)piperazine-1-carbonyl]-3,4-dihydro-1H-benzo[b][1,6]naphthyridin-2-yl}acetamide]: the half-maximal inhibitory concentration (IC50) is more than 1000 nM.

On to `O=C(CN1CCc2nc3ccccc3c(C(=O)N3CCN(CCO)CC3)c2C1)Nc1cc(Cl)ccc1OCCO` [Compound A61, N-[5-Chloro-2-(2-hydroxyethoxy)phenyl]-2-{10-[4-(2-hydroxyethyl)-piperazine-1-carbonyl]-3,4-dihydro-1H-benzo[b][1,6]naphthyridin-2-yl}-acetamide], for which the IC50 lay within 100 to 1000 nM.

For the compound `O=C(CN1CCc2nc3ccccc3c(C(=O)N3CCN(CCO)CC3)c2C1)Nc1ccc(N2CCCC2=O)c(Cl)c1` [Compound A64, N-[3-Chloro-4-(2-oxopyrrolidin-1-yl)phenyl]-2-{10-[4-(2-hydroxyethyl)-piperazine-1-carbonyl]-3,4-dihydro-1H-benzo[b][1,6]naphthyridin-2-yl}-acetamide], the IC50 is more than 1000 nM.

On to `O=C(CN1CCc2nc3ccccc3c(C(=O)N3CCN(CCO)CC3)c2C1)Nc1ccc(N2CCOCC2=O)c(Cl)c1` [Compound A65, N-[3-Chloro-4-(3-oxomorpholin-4-yl)phenyl]-2-{10-[4-(2-hydroxyethyl)-piperazine-1-carbonyl]-3,4-dihydro-1H-benzo[b][1,6]naphthyridin-2-yl}-acetamide], for which the IC50 was more than 1000 nM.

For `COc1ccc(Cl)cc1NC(=O)CN1CCc2nc3ccccc3c(C(=O)N3CCN(CCN4CCCCC4)CC3)c2C1` [Compound A66, N-(5-Chloro-2-methoxyphenyl)-2-{10-[4-(2-piperidin-1-ylethyl)piperazine-1-carbonyl]-3,4-dihydro-1H-benzo[b][1,6]naphthyridin-2-yl}acetamide], the IC50 is less than 100 nM.

`COc1ccc(Cl)cc1NC(=O)CN1CCc2nc3ccccc3c(C(=O)N3CCN(CCN(C)C)CC3)c2C1` [Compound A67, N-(5-Chloro-2-methoxyphenyl)-2-{10-[4-(2-dimethylaminoethyl)piperazine-1-carbonyl]-3,4-dihydro-1H-benzo[b][1,6]naphthyridin-2-yl}acetamide]: the IC50 was less than 100 nM.

Regarding `COc1ccc(Cl)cc1NC(=O)CN1CCc2nc3ccccc3c(C(=O)N3CCN(CCN4CCOCC4)CC3)c2C1` [Compound A68, N-(5-Chloro-2-methoxyphenyl)-2-{10-[4-(2-morpholin-4-ylethyl)piperazine-1-carbonyl]-3,4-dihydro-1H-benzo[b][1,6]naphthyridin-2-yl}acetamide], the IC50 is less than 100 nM.

As to `COc1ccc(Br)cc1NC(=O)CN1CCc2nc3ccccc3c(C(=O)N3CCN(CCO)CC3)c2C1` [Compound A69, N-(5-Bromo-2-methoxyphenyl)-2-{10-[4-(2-hydroxyethyl)piperazine-1-carbonyl]-3,4-dihydro-1H-benzo[b][1,6]naphthyridin-2-yl}acetamide], the IC50 was less than 100 nM.

On to `Cc1ccc(NC(=O)CN2CCc3nc4ccccc4c(C(=O)N4CCN(CCO)CC4)c3C2)cc1Cl` [Compound A73, N-(3-Chloro-4-methylphenyl)-2-{10-[4-(2-hydroxyethyl)piperazine-1-carbonyl]-3,4-dihydro-1H-benzo[b][1,6]naphthyridin-2-yl}acetamide], for which the IC50 is more than 1000 nM.

Take `O=C(CN1CCc2nc3ccccc3c(C(=O)N3CCN(CCO)CC3)c2C1)Nc1ccc(F)c(Cl)c1` [Compound A74, N-(3-Chloro-4-fluorophenyl)-2-{10-[4-(2-hydroxyethyl)piperazine-1-carbonyl]-3,4-dihydro-1H-benzo[b][1,6]naphthyridin-2-yl}acetamide]: the IC50 was more than 1000 nM.

Take `O=C(CN1CCc2nc3ccccc3c(C(=O)N3CCN(CCO)CC3)c2C1)Nc1cc(Cl)ccc1Cl` [Compound A75, N-(2,5-Dichlorophenyl)-2-{10-[4-(2-hydroxyethyl)piperazine-1-carbonyl]-3,4-dihydro-1H-benzo[b][1,6]naphthyridin-2-yl}acetamide]: the IC50 is 100 to 1000 nM.

For `O=C(CN1CCc2nc3ccccc3c(C(=O)N3CCN(CCO)CC3)c2C1)Nc1ccc(Cl)c(Cl)c1` [Compound A76, N-(3,4-Dichlorophenyl)-2-{10-[4-(2-hydroxyethyl)piperazine-1-carbonyl]-3,4-dihydro-1H-benzo[b][1,6]naphthyridin-2-yl}acetamide], the IC50 was more than 1000 nM.

Regarding `O=C(CN1CCc2nc3ccccc3c(C(=O)N3CCN(CCO)CC3)c2C1)Nc1cc(Cl)ccc1F` [Compound A78, N-(5-Chloro-2-fluorophenyl)-2-{10-[4-(2-hydroxyethyl)piperazine-1-carbonyl]-3,4-dihydro-1H-benzo[b][1,6]naphthyridin-2-yl}acetamide], the IC50 was 100 to 1000 nM.

As to `O=C(CN1CCc2nc3ccccc3c(C(=O)N3CCN(CCO)CC3)c2C1)Nc1cc(Cl)cc2ncoc12` [Compound A79, N-(5-Chlorobenzooxazol-7-yl)-2-{10-[4-(2-hydroxyethyl)piperazine-1-carbonyl]-3,4-dihydro-1H-benzo[b][1,6]naphthyridin-2-yl}acetamide], the IC50 is more than 1000 nM.

`COc1c(Cl)cc(Cl)cc1NC(=O)CN1CCc2nc3ccccc3c(C(=O)N3CCN(CCO)CC3)c2C1` [Compound A80, N-(3,5-Dichloro-2-methoxyphenyl)-2-{10-[4-(2-hydroxyethyl)piperazine-1-carbonyl]-3,4-dihydro-1H-benzo[b][1,6]naphthyridin-2-yl}acetamide]: the IC50 lay within 100 to 1000 nM.

Take `COc1ccc(Cl)cc1N(C)C(=O)CN1CCc2nc3ccccc3c(C(=O)N3CCOCC3)c2C1` [Compound A87, N-(5-Chloro-2-methoxyphenyl)-N-methyl-2-[10-(morpholine-4-carbonyl)-3,4-dihydro-1H-benzo[b][1,6]naphthyridin-2-yl]acetamide]: the IC50 was 100 to 1000 nM.

Still in this assay, the particulars now being: Autotaxin inhibition (enzyme test), TABLE 2 (B compounds); substrate LPC 75 μM.
On to `CNC(=O)C(NC(=O)CN1CCc2nc3ccccc3c(C(=O)N3CCN(CCO)CC3)c2C1)c1ccc(Cl)cc1` (centres unmarked) [Compound B2, 2-(4-Chlorophenyl)-2-(2-{10-[4-(2-hydroxyethyl)piperazine-1-carbonyl]-3,4-dihydro-1H-benzo[b][1,6]naphthyridin-2-yl}acetylamino)-N-methylacetamide], for which the IC50 was more than 1000 nM.

In the case of `O=C(CN1CCc2nc3ccccc3c(C(=O)N3CCN(CCO)CC3)c2C1)Nc1cc(Cl)ccc1OC(F)(F)F` [Compound B4, N-(5-Chloro-2-trifluoromethoxyphenyl)-2-{10-[4-(2-hydroxyethyl)piperazine-1-carbonyl]-3,4-dihydro-1H-benzo[b][1,6]naphthyridin-2-yl}acetamide], the IC50 was more than 1000 nM.

Consider `O=C(CN1CCc2nc3ccccc3c(C(=O)N3CCOCC3)c2C1)Nc1cc(Cl)ccc1OC(F)(F)F` [Compound B5, N-(5-Chloro-2-trifluoromethoxyphenyl)-2-[10-(morpholine-4-carbonyl)-3,4-dihydro-1H-benzo[b][1,6]naphthyridin-2-yl]acetamide], for which the IC50 is more than 1000 nM.
